Test results: the supplement of paper PMC10307832

What was measured:
Assay in all cases: relative viability (nuclei count vs DMSO), 5 days (fraction); higher = more cells survive
[1] = compound: COc1cc2c(Oc3ccc4[nH]c(C)cc4c3F)ncnc2cc1OCCCN1CCCC1 [Cediranib] + Nc1ncn([C@H]2C[C@H](O)[C@@H](CO)O2)c(=O)n1 [Decitabine] (partner 2 µM)
How it was run: (§1)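 Lung cancer cell lines in 1536-well plates got either a single drug or a fixed anchor-drug dose together with five library-drug doses (not always all listed) in √10 steps, by pin tool, on the day after seeding. Nuclei were counted after 5 days, and relative viability is the treated-to-vehicle ratio of nuclei counts. Values are medians of duplicate plates.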

[2] = compound: COc1cc2c(Oc3ccc4[nH]c(C)cc4c3F)ncnc2cc1OCCCN1CCCC1 [Cediranib] + CC(=O)c1c(C)c2cnc(Nc3ccc(N4CCNCC4)cn3)nc2n(C2CCCC2)c1=O [Palbociclib] (partner 0.5 µM)
How it was run: as §1

[3] = compound: O=C(C[C@H]1NCCC[C@@H]1O)Cn1cnc2cc(Br)c(Cl)cc2c1=O (racemic) [Halofuginone] + N=C(N)NC(=N)NCCc1ccccc1 [Phenformin] (partner 250 µM)
How it was run: as §1

[4] = compound: O=C(C[C@H]1NCCC[C@@H]1O)Cn1cnc2cc(Br)c(Cl)cc2c1=O (racemic) [Halofuginone] + O=C(c1cc(Cc2n[nH]c(=O)c3ccccc23)ccc1F)N1CCN(C(=O)C2CC2)CC1 [Olaparib] (partner 8 µM)
How it was run: as §1

Cell Line	relative viability ([1]; first compound 0.04 µM)	relative viability ([1]; first compound 0.1265 µM)	relative viability ([1]; first compound 0.4 µM)	relative viability ([1]; first compound 1.265 µM)	relative viability ([1]; first compound 4 µM)	relative viability ([2]; first compound 0.04 µM)	relative viability ([2]; first compound 0.1265 µM)	relative viability ([2]; first compound 0.4 µM)	relative viability ([2]; first compound 1.265 µM)	relative viability ([2]; first compound 4 µM)	relative viability ([3]; first compound 0.001 µM)	relative viability ([3]; first compound 0.003162 µM)	relative viability ([3]; first compound 0.01 µM)	relative viability ([3]; first compound 0.03162 µM)	relative viability ([3]; first compound 0.1 µM)	relative viability ([4]; first compound 0.001 µM)	relative viability ([4]; first compound 0.003162 µM)	relative viability ([4]; first compound 0.01 µM)	relative viability ([4]; first compound 0.03162 µM)	relative viability ([4]; first compound 0.1 µM)
NCI-H1734	0.531	0.512	0.551	0.497	0.536	0.322	0.348	0.383	0.356	0.305	0.369	0.436	0.427	0.408	0.369	0.632	0.621	0.6	0.584	0.22
NCI-H1755	0.71	0.66	0.753	0.707	0.724	0.441	0.429	0.436	0.441	0.422	0.636	0.629	0.617	0.665	0.615	0.853	0.941	0.881	0.833	0.723
NCI-H1792		0.503	0.48	0.501	0.715	0.599	0.607	0.584	0.739	0.682	0.233	0.29	0.256	0.223	0.184	0.529	0.424	0.355	0.42	0.0661
NCI-H1793	0.51	0.477	0.478	0.478	0.506	0.306	0.277	0.3	0.271	0.311	0.438	0.388	0.429	0.328	0.332	0.988	0.852	0.814	0.902	0.294
NCI-H1915	0.259	0.248	0.259	0.26	0.28	0.549	0.491	0.506	0.512	0.553	0.361	0.386	0.366	0.339	0.355	0.225	0.247	0.241	0.26	0.237
NCI-H1944	0.443	0.396	0.422	0.443	0.45	0.331	0.386	0.315	0.346	0.313	0.179	0.225	0.208	0.218	0.172	0.416	0.407	0.395	0.405	0.402
NCI-H1975	0.638	0.432	0.403	0.351	0.42	0.62	0.608	0.491	0.578	0.547	0.403	0.397	0.422	0.356	0.365	0.875	0.868	0.721	0.429	0.14
NCI-H1993		0.629	0.666	0.518	0.651		0.634	0.64	0.656	0.637	0.436	0.554	0.448	0.535	0.577	0.949	0.699	1.04	1.02	0.623
NCI-H2009	0.4	0.366	0.369	0.333	0.417	0.308	0.188	0.19	0.0997	0.211	0.485	0.52	0.473	0.449	0.271	0.744	0.664	0.66	0.706	0.541
NCI-H2023	0.212	0.229	0.229	0.234	0.266	0.398	0.344	0.359	0.413	0.397	0.441	0.418	0.383	0.395	0.2	0.509	0.565	0.405	0.239	0.0514
NCI-H2085	0.55	0.515	0.537	0.526	0.541	0.5	0.48	0.469	0.473	0.466	0.685	0.703	0.686	0.705	0.574	0.795	0.816	0.728	0.736	0.684
NCI-H2087	0.22	0.35	0.308	0.328	0.276	0.243	0.24	0.249	0.182	0.224	0.487	0.535	0.424	0.44	0.362	0.616	0.685	0.629	0.617	0.277
NCI-H2126	0.589	0.573	0.58	0.561	0.602	0.349	0.358	0.359	0.349	0.314	0.538	0.56	0.511	0.512	0.488	0.893	0.863	0.882	0.901	0.916
NCI-H2170	0.522		0.473	0.481	0.515	0.438		0.371	0.372	0.381	0.412	0.416	0.411	0.392	0.434	0.64	0.593	0.589	0.605	0.551
NCI-H2342	0.83	0.827	0.732	0.74	0.812	0.562	0.52	0.451	0.534	0.479	0.719	0.566	0.561	0.688	0.547	0.644	0.431	0.413	0.431	0.427
NCI-H2347	0.671	0.703	0.617	0.659	0.568	0.497	0.417	0.4	0.4	0.417	0.535	0.521	0.53	0.477	0.317	0.537	0.583	0.565	0.518	0.43
